Data reported in patent US12275720B2, “Small molecule inhibitors of galectin-3” (BRISTOL MYERS SQUIBB, priority 2020, dated 2025).

target: T1, hGalectin-3 (Homo sapiens, UniProt P17931); assay: Gal-3 ELISA Assay (hGalectin-3 neutralization binding assay); conditions: ASF-coated plate, 15 nM hGalectin-3, read-out: hGal3 IC50 (ELISA)
T1 construct: made in house
T1 sequence (P17931 whole entry): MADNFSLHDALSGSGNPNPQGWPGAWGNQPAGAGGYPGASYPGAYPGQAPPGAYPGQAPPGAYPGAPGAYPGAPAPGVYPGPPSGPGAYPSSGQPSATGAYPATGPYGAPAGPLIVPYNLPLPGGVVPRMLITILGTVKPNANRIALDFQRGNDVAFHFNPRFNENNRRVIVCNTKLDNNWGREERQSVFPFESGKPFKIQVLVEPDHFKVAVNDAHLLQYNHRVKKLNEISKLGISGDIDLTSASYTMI

Molecule	IC50
(2R, 3R, 4S, 5R, 6R)-4-(4-(3-fluorophenyl)-1H-1,2,3-triazol-1-yl)-N-((1S,2R,3R)-3-(4-(3-fluorophenyl)-1H-1,2,3-triazol-1-yl)-2-hydroxycyclohexyl)-5-hydroxy-6-(hydroxymethyl)-3-methoxytetrahydro-2H-pyran-2-carboxamide [Example 1a]	700 nM
(2R, 3R, 4S, 5R, 6R)-4-(4-(3-fluorophenyl)-1H-1,2,3-triazol-1-yl)-N-((1S,2R,3R)-3-(4-(3-fluorophenyl)-1H-1,2,3-triazol-1-yl)-2-hydroxycyclohexyl)-5-hydroxy-6-(hydroxymethyl)-3-methoxytetrahydro-2H-pyran-2-carboxamide [Example 1b]	16000 nM

target: His-tagged recombinant human Gal-3 (hGal-3) (Homo sapiens, UniProt P17931); assay: Gal 3 HTRF Assay; type: binding; conditions: HTRF assay (default), 15 nM hGal-3, 15 nM B-ASF; read-out: hGal3 IC50 (HTRF)
Procedure: • ASSAY BUFFER Composition: 25 mM HEPES, 100 mM NaCl, 0.005% Tween 20, 0.05% BSA prepared in sterile water (all reagents from Sigma). Controls: • Positive Control: 100% DMSO (1 μL)+His-tagged hGal-3 (20 μL)+B-ASF (20 μL)+Anti-His Terbium Antibody (5 μL)+Strep d2 Antibody (5 μL). • Negative Control: 100% DMSO (1 μL)+His-tagged hGal-3(20 μL)+Anti His Terbium Antibody (5 μL)+Strep d2 Antibody (5 μL). Stocks Preparation:
PROTOCOL: The Gal-3 assays were performed in 384 white Opti plates in three replicates at room temperature with gentle shaking at 250-300 rpm From the original stocks, […] working stock concentrations of His-tagged recombinant human Gal-3 (hGal-3) and that of B-ASF were prepared. From the working stock, 20 μL of hGal-3 (15 nM) and 20 μL B-ASF (15 nM) were added to the plates. In Negative Control, only hGal-3 was added. A concentration range of 50× working stocks were prepared for the compounds in 100% DMSO. Aliquots of 1 μL of the compounds were added to the wells and pre-incubated with 20 μL hGal-3 per well for 30 minutes Then 20 μL B-ASF were added and incubated for another 1 hour. To detect the signal, 5 μL (final conc. of 1.0 nM) terbium labelled Anti-His antibody was added and incubated for 30 min followed by adding 5 μL (final conc. of 20 nM) Streptavidin d2 and incubation for another 1 hour. The assay signal was detected using HTRF screen protocol (Excitation wavelength=340 nm, emission wavelength=615 nm/665 nm) on Envision 2104 Multilabel Reader. Data analysed using Toolset and Curve Master. Results are reported in the experimental section (IC50 in μM). All IC50 reported were generated using the HTRF assay except when specifically indicated.

Sequence of His-tagged recombinant human Gal-3 (hGal-3) (P17931 whole entry): as above

Molecule	IC50
CO[C@@H]1[C@@H](n2cc(-c3cccc(F)c3)nn2)[C@@H](O)[C@@H](CO)O[C@H]1C(=O)N[C@@H]1CCC[C@H](n2cc3c(F)cccc3n2)[C@H]1O (single isomer, unassigned) [Example 8]	570 nM
CO[C@@H]1[C@@H](n2cc(-c3cccc(F)c3)nn2)[C@@H](O)[C@@H](CO)O[C@H]1C(=O)N(C)[C@H]1COC[C@@H](n2cc(-c3cccc(F)c3)nn2)[C@@H]1O (single isomer, unassigned) [Example 21]	30 nM
CO[C@@H]1[C@@H](n2cc(-c3cccc(F)c3)nn2)[C@@H](O)[C@@H](CO)O[C@H]1C(=O)N(C)[C@H]1CN(C)C[C@@H](n2cc(-c3cccc(F)c3)nn2)[C@@H]1O [Example 19, (2R,3R,4S,5R,6R)-4-(4-(3-fluorophenyl)-1H-1,2,3-triazol-1-yl)-N-((3S,4R,5R)-5-(4-(3-fluorophenyl)-1H-1,2,3-triazol-1-yl)-4-hydroxy-1-methylpiperidin-3-yl)-5-hydroxy-6-(hydroxymethyl)-3-methoxy-N-methyltetrahydro-2H-pyran-2-carboxamide]	20 nM
CO[C@@H]1[C@@H](n2cc(-c3cccc(F)c3)nn2)[C@@H](O)[C@@H](CO)O[C@H]1C(=O)N(C)[C@H]1COC[C@@H](n2ncc3cc(F)cnc32)[C@@H]1O [Example 22a, (2R,3R,4S,5R,6R)-N-((3S,4R,5R)-5-(5-fluoro-1H-pyrazolo[3,4-b]pyridin-1-yl)-4-hydroxytetrahydro-2H-pyran-3-yl)-4-(4-(3-fluorophenyl)-1H-1,2,3-triazol-1-yl)-5-hydroxy-6-(hydroxymethyl)-3-methoxy-N-methyltetrahydro-2H-pyran-2-carboxamide]	> 10000 nM
(2R,3R,4S,5R,6R)-4-(4-(3-fluorophenyl)-1H-1,2,3-triazol-1-yl)-N-((1R,2S,3S)-3-(5-(3-fluorophenyl)-1H-1,2,3-triazol-1-yl)-2-hydroxycyclohexyl)-5-hydroxy-6-(hydroxymethyl)-3-methoxytetrahydro-2H-pyran-2-carboxamide [Example 6a]	27000 nM
(2R,3R,4S,5R,6R)-4-(4-(3-fluorophenyl)-1H-1,2,3-triazol-1-yl)-N-((1R,2S,3S)-3-(5-(3-fluorophenyl)-1H-1,2,3-triazol-1-yl)-2-hydroxycyclohexyl)-5-hydroxy-6-(hydroxymethyl)-3-methoxytetrahydro-2H-pyran-2-carboxamide [Example 6b]	900 nM
(2R,3R,4S,5R,6R)-4-(4-(3-fluorophenyl)-1H-1,2,3-triazol-1-yl)-N-((1S,2R,3R)-3-(3-(3-fluorophenyl)-1H-1,2,4-triazol-1-yl)-2-hydroxycyclohexyl)-5-hydroxy-6-(hydroxymethyl)-3-methoxytetrahydro-2H-pyran-2-carboxamide [Example 9a]	500 nM
(2R,3R,4S,5R,6R)-4-(4-(3-fluorophenyl)-1H-1,2,3-triazol-1-yl)-N-((1S,2R,3R)-3-(3-(3-fluorophenyl)-1H-1,2,4-triazol-1-yl)-2-hydroxycyclohexyl)-5-hydroxy-6-(hydroxymethyl)-3-methoxytetrahydro-2H-pyran-2-carboxamide [Example 9b]	> 100000 nM
(2R,3R,4S,5R,6R)-4-(4-(3-fluorophenyl)-1H-1,2,3-triazol-1-yl)-N-((1S,2R,3R)-3-(4-(3-fluorophenyl)-1H-1,2,3-triazol-1-yl)-2-hydroxycyclohexyl)-5-hydroxy-6-(hydroxymethyl)-3-methoxy-N-methyltetrahydro-2H-pyran-2-carboxamide [Example 10a]	5500 nM
(2R,3R,4S,5R,6R)-4-(4-(3-fluorophenyl)-1H-1,2,3-triazol-1-yl)-N-((1S,2R,3R)-3-(4-(3-fluorophenyl)-1H-1,2,3-triazol-1-yl)-2-hydroxycyclohexyl)-5-hydroxy-6-(hydroxymethyl)-3-methoxy-N-methyltetrahydro-2H-pyran-2-carboxamide [Example 10b]	91 nM
(2R,3R,4S,5R,6R)-4-(4-(3-fluorophenyl)-1H-1,2,3-triazol-1-yl)-N-((3R,4S,5S)-5-(4-(3-fluorophenyl)-1H-1,2,3-triazol-1-yl)-4-hydroxypiperidin-3-yl)-3,5-dihydroxy-6-(hydroxymethyl)-N-methyltetrahydro-2H-pyran-2-carboxamide [Example 18a]	1800 nM
(2R,3R,4S,5R,6R)-4-(4-(3-fluorophenyl)-1H-1,2,3-triazol-1-yl)-N-((3R,4S,5S)-5-(4-(3-fluorophenyl)-1H-1,2,3-triazol-1-yl)-4-hydroxypiperidin-3-yl)-3,5-dihydroxy-6-(hydroxymethyl)-N-methyltetrahydro-2H-pyran-2-carboxamide [Example 18b]	50 nM
(2R,3R,4S,5R,6R)-4-(4-(3-fluorophenyl)-1H-1,2,3-triazol-1-yl)-N-((3R,4S,5S)-5-(4-(3-fluorophenyl)-1H-1,2,3-triazol-1-yl)-4-hydroxypiperidin-3-yl)-5-hydroxy-6-(hydroxymethyl)-3-methoxy-N-methyltetrahydro-2H-pyran-2-carboxamide [Example 16a]	3500 nM
(2R,3R,4S,5R,6R)-4-(4-(3-fluorophenyl)-1H-1,2,3-triazol-1-yl)-N-((3R,4S,5S)-5-(4-(3-fluorophenyl)-1H-1,2,3-triazol-1-yl)-4-hydroxypiperidin-3-yl)-5-hydroxy-6-(hydroxymethyl)-3-methoxy-N-methyltetrahydro-2H-pyran-2-carboxamide [Example 16b]	44 nM
(2R,3R,4S,5R,6R)-4-(4-(3-fluorophenyl)-1H-1,2,3-triazol-1-yl)-N-((3R,4S,5S)-5-(4-(3-fluorophenyl)-1H-1,2,3-triazol-1-yl)-4-hydroxytetrahydro-2H-pyran-3-yl)-5-hydroxy-6-(hydroxymethyl)-3-methoxytetrahydro-2H-pyran-2-carboxamide [Example 20a]	36000 nM
(2R,3R,4S,5R,6R)-4-(4-(3-fluorophenyl)-1H-1,2,3-triazol-1-yl)-N-((3R,4S,5S)-5-(4-(3-fluorophenyl)-1H-1,2,3-triazol-1-yl)-4-hydroxytetrahydro-2H-pyran-3-yl)-5-hydroxy-6-(hydroxymethyl)-3-methoxytetrahydro-2H-pyran-2-carboxamide [Example 20b]	90 nM
(2R,3R,4S,5R,6R)-N-((1R,2S,3S)-3-(4-fluoro-1H-indazol-1-yl)-2-hydroxycyclohexyl)-4-(4-(3-fluorophenyl)-1H-1,2,3-triazol-1-yl)-5-hydroxy-6-(hydroxymethyl)-3-methoxytetrahydro-2H-pyran-2-carboxamide [Example 7a]	640 nM
(2R,3R,4S,5R,6R)-N-((1R,2S,3S)-3-(4-fluoro-1H-indazol-1-yl)-2-hydroxycyclohexyl)-4-(4-(3-fluorophenyl)-1H-1,2,3-triazol-1-yl)-5-hydroxy-6-(hydroxymethyl)-3-methoxytetrahydro-2H-pyran-2-carboxamide [Example 7b]	23000 nM
(2R,4R,5R,6R)-4-(4-(3-fluorophenyl)-1H-1,2,3-triazol-1-yl)-N-((3R,4S,5S)-5-(4-(3-fluorophenyl)-1H-1,2,3-triazol-1-yl)-4-hydroxypiperidin-3-yl)-5-hydroxy-6-(hydroxymethyl)-N-methyltetrahydro-2H-pyran-2-carboxamide [Example 17a]	5200 nM
(2R,4R,5R,6R)-4-(4-(3-fluorophenyl)-1H-1,2,3-triazol-1-yl)-N-((3R,4S,5S)-5-(4-(3-fluorophenyl)-1H-1,2,3-triazol-1-yl)-4-hydroxypiperidin-3-yl)-5-hydroxy-6-(hydroxymethyl)-N-methyltetrahydro-2H-pyran-2-carboxamide [Example 17b]	130 nM
(2R, 3R, 4S, 5R, 6R)-4-(4-(3-fluorophenyl)-1H-1,2,3-triazol-1-yl)-N-((1S,2R,3R)-3-(4-(3-fluorophenyl)-1H-1,2,3-triazol-1-yl)-2-hydroxycyclohexyl)-5-hydroxy-6-(hydroxymethyl)-3-methoxytetrahydro-2H-pyran-2-carboxamide [Example 1a]	290 nM
